Measurements from EP1561465A2, “Methods of use of fluoroquinolone compounds against bacteria” (LG Life Sciences, Ltd., priority 1999, dated 2001).
Read-outs that look alike come from different tables or passages of the source.

How the values were obtained:
Format in all cases: cell-based
Streptococcus pneumoniae [1] = assay: MIC by agar dilution (NCCLS), 411 isolates Buenos Aires 1998-99; conditions: Streptococcus pneumoniae, S. pneumoniae, read-out: MIC90
Streptococcus pyogenes = assay: MIC by NCCLS reference broth microdilution, 450 respiratory tract pathogens; conditions: Streptococcus pyogenes
Staphylococcus aureus = assay: as above
Moraxella catarrhalis = assay: as above
Klebsiella pneumoniae = assay: as above; conditions: for MIC50 / MIC90: Klebsiella pneumoniae
Streptococcus pneumoniae [2] = assay: as above; conditions: Streptococcus pneumoniae
Haemophilus influenzae = assay: as above
[3] = Streptococcus pyogenes (n = 100)
[4] = erythromycin resistant C phenotype [MLSB] (n = 20)
[5] = erythromycin resistant I phenotype [MLSB] (n = 20)
[6] = erythromycin resistant M phenotype (n = 20)
[7] = β-lactamase positive and erythromycin resistant (n = 10)
[8] = extended spectrum β-lactamase negative (n = 30)
[9] = extended spectrum β-lactamase positive (n = 20)
[10] = Streptococcus pneumoniae (n = 100)
[11] = erythromycin resistant M phenotype (n = 16)
[12] = erythromycin resistant MLSB phenotype (n = 16)
[13] = penicillin intermediate (n = 16)
[14] = penicillin susceptible (n = 20)
[15] = Haemophilus influenzae, Haemophilus influenzae (n = 100)
[16] = Haemophilus influenzae, β-lactamase negative (n = 80)
[17] = Haemophilus influenzae, β-lactamase positive (n = 20)

CO/N=C(\C(=O)N[C@@H]1C(=O)N2C(C(=O)O)=C(CSc3nc(=O)c(=O)[nH]n3C)CS[C@H]12)c1csc(N)n1 [Ceftriaxone, ceftriaxone]
0.016 µg/mL: MIC90 (Streptococcus pneumoniae [1]; Penicillin susceptible (n = 69))
1 µg/mL: MIC90 (Streptococcus pneumoniae [1]; Penicillin intermediate (n = 17)) | MIC90 (Streptococcus pneumoniae [1]; Penicillin resistant (n = 4))

NC1CCN(c2c(F)cc3c(=O)c(C(=O)O)cn(C4CC4)c3c2Cl)C1 (stereo not shown) [Clinafloxacin, clinafloxacin]
≤ 0.00375 µg/mL: MIC50 (Moraxella catarrhalis; Moraxella catarrhalis (n = 50)) | MIC50 (Moraxella catarrhalis; β-lactamase negative (n = 13)) | MIC50 (Moraxella catarrhalis; β-lactamase positive (n = 37))
0.12 µg/mL: MIC90 (Streptococcus pyogenes; [4]) | MIC50 (Staphylococcus aureus; Staphylococcus aureus (n = 50)) | MIC50 (Staphylococcus aureus; β-lactamase negative (n = 20)) | MIC50 (Staphylococcus aureus; β-lactamase positive (n = 20)) | MIC50 (Staphylococcus aureus; [7]) | MIC90 (Streptococcus pneumoniae [2]; [10]) | MIC90 (Streptococcus pneumoniae [2]; [11]) | MIC90 (Streptococcus pneumoniae [2]; [12]) | MIC50 (Streptococcus pneumoniae [2]; multi-drug resistant (n = 16)) | MIC90 (Streptococcus pneumoniae [2]; multi-drug resistant (n = 16)) | MIC50 (Streptococcus pneumoniae [2]; [13]) | MIC90 (Streptococcus pneumoniae [2]; [13]) | MIC50 (Streptococcus pneumoniae [2]; penicillin resistant (n = 18)) | MIC90 (Streptococcus pneumoniae [2]; [14])
0.06 to 0.12 µg/mL: MIC (Streptococcus pneumoniae [2]; multi-drug resistant (n = 16)) | MIC (Streptococcus pneumoniae [2]; [13])
0.0075 to 0.25 µg/mL: MIC (Haemophilus influenzae; [17])
0.015 to 0.12 µg/mL: MIC (Streptococcus pyogenes; [3]) | MIC (Streptococcus pneumoniae [2]; [14])
0.0075 to 0.06 µg/mL: MIC (Haemophilus influenzae; [15]) | MIC (Haemophilus influenzae; [16])
0.015 µg/mL: MIC90 (Moraxella catarrhalis; Moraxella catarrhalis (n = 50)) | MIC90 (Moraxella catarrhalis; β-lactamase negative (n = 13)) | MIC90 (Moraxella catarrhalis; β-lactamase positive (n = 37)) | MIC50 (Klebsiella pneumoniae; Klebsiella pneumoniae (n = 50)) | MIC90 (Klebsiella pneumoniae; [8])
0.03 to 0.25 µg/mL: MIC (Streptococcus pneumoniae [2]; [10])
0.00375 to 0.015 µg/mL: MIC (Moraxella catarrhalis; Moraxella catarrhalis (n = 50)) | MIC (Moraxella catarrhalis; β-lactamase negative (n = 13)) | MIC (Moraxella catarrhalis; β-lactamase positive (n = 37))
≤0.0075 to 1 µg/mL: MIC Range (Klebsiella pneumoniae; Klebsiella pneumoniae (n = 50)) | MIC Range (Klebsiella pneumoniae; [9])
≤ 0.0075 µg/mL: MIC50 (Klebsiella pneumoniae; [8]) | MIC50 (Klebsiella pneumoniae; [9]) | MIC50 (Haemophilus influenzae; [16]) | MIC90 (Haemophilus influenzae; Haemophilus influenzae, β-lactamase negative (n = 80), read-out: MIC90) | MIC50 (Haemophilus influenzae; [17]) | MIC90 (Haemophilus influenzae; Haemophilus influenzae, β-lactamase positive (n = 20), read-out: MIC90)
≤0.0075 to 0.12 µg/mL: MIC Range (Klebsiella pneumoniae; [8])
0.25 µg/mL: MIC90 (Staphylococcus aureus; Staphylococcus aureus (n = 50)) | MIC90 (Staphylococcus aureus; β-lactamase negative (n = 20)) | MIC90 (Staphylococcus aureus; β-lactamase positive (n = 20)) | MIC90 (Staphylococcus aureus; [7]) | MIC90 (Streptococcus pneumoniae [2]; penicillin resistant (n = 18))
≤0.00075 µg/mL: MIC90 (Haemophilus influenzae; Haemophilus influenzae (n = 100))
≤ 0.00075 µg/mL: MIC50 (Haemophilus influenzae; [15]) | MIC90 (Haemophilus influenzae; Haemophilus influenzae, Haemophilus influenzae (n = 100), read-out: MIC90)
1 µg/mL: MIC90 (Klebsiella pneumoniae; Klebsiella pneumoniae (n = 50)) | MIC90 (Klebsiella pneumoniae; [9])
0.06 µg/mL: MIC50 (Streptococcus pyogenes; [3]) | MIC90 (Streptococcus pyogenes; [3]) | MIC50 (Streptococcus pyogenes; [4]) | MIC50 (Streptococcus pyogenes; [5]) | MIC90 (Streptococcus pyogenes; [5]) | MIC90 (Streptococcus pyogenes; [6]) | MIC90 (Streptococcus pyogenes; fully susceptible (n = 20)) | MIC90 (Streptococcus pyogenes; multi-drug resistant (n = 20)) | MIC50 (Streptococcus pneumoniae [2]; [10]) | MIC50 (Streptococcus pneumoniae [2]; [11]) | MIC50 (Streptococcus pneumoniae [2]; [12]) | MIC50 (Streptococcus pneumoniae [2]; [14])
0.03 to 0.06 µg/mL: MIC (Streptococcus pyogenes; [5]) | MIC (Streptococcus pyogenes; multi-drug resistant (n = 20))
0.03 µg/mL: MIC50 (Streptococcus pyogenes; [6]) | MIC50 (Streptococcus pyogenes; fully susceptible (n = 20)) | MIC50 (Streptococcus pyogenes; multi-drug resistant (n = 20))
0.06 to 0.25 µg/mL: MIC (Staphylococcus aureus; Staphylococcus aureus (n = 50)) | MIC (Staphylococcus aureus; β-lactamase negative (n = 20)) | MIC (Staphylococcus aureus; β-lactamase positive (n = 20)) | MIC (Staphylococcus aureus; [7]) | MIC (Streptococcus pneumoniae [2]; penicillin resistant (n = 18))
0.03 to 0.12 µg/mL: MIC (Streptococcus pyogenes; [4]) | MIC (Streptococcus pyogenes; fully susceptible (n = 20)) | MIC (Streptococcus pneumoniae [2]; [11]) | MIC (Streptococcus pneumoniae [2]; [12])
0.015 to 0.06 µg/mL: MIC (Streptococcus pyogenes; [6])
